In patent US9938259B2, “Therapeutic compositions and related methods of use” (Agios Pharmaceuticals, Inc., priority 2009, dated 2018) one finds AC50 data, which are given here for 41 compounds.

SMILES strings stand for the structures.

Assay [1] deals with T1, PKM2 (Homo sapiens, UniProt P14618). Put plainly: PKM2 Ex-Vivo Assay. Also noted: endogenous in cells; host or cells: A549. The format is cell-based. As to conditions: A549 cells treated with compound 1-4 hrs, pyruvate kinase activity in lysate; read-out: Ex-Vivo_AC50. As to the method:
Described herein is a method to measure the activity of PKM2 activators in living cells and tissue. One of ordinary skill in the art would recognize and understand that this method can be adapted to high throughput format, and can accommodate a variety of cell lines and growth conditions.
In the assay, cells are treated with a compound described herein (i.e., a PKM2 activator). This compound is capable of entering the cell and binding to PKM2, inducing an activated conformation. The excess unbound compound is washed away with PBS, and the cells are lysed by snap-freezing on dry ice, followed by addition of a detergent-containing lysis buffer. The lysate, in which activated PKM2 remains intact, is removed and added to a chemical cocktail including the chemicals necessary to measure pyruvate kinase activity, in an assay that is coupled to the LDHa enzyme. The amount of pyruvate kinase activity that is measured is normalized to the total protein content in the lysate, and related to the concentration of PKM2 activator that was added to the cell. This allows an AC50 (concentration at which PKM2 is activated 50%) value to be derived. The total fold-increase in activity over mock-treated cells can also be calculated, and the “maximum level of activation” can be used to distinguish between compounds that fully activate PKM2 and compounds that can only partially activate PKM2.
• Lysis buffer* • 20 mM Tris-HCl (pH 7.5) • 150 mM NaCl • 1 mM Na2EDTA • 1 mM EGTA • 1% Triton • 2.5 mM sodium pyrophosphate • 1 mM beta-glycerophosphate • 1 mM Na3VO4 • 1 μg/ml leupeptin • 1 mM PMSF** * This lysis buffer (without PMSF) is available from Cell Signaling Technology as a 10× stock (#9803) ** 1 mM PMSF is added fresh from a 100 mM stock solution made up in isopropanol. The stock solution can be stored at 4 degrees indefinitely. Pyruvate Kinase Assay Master Mix (Same for PKM2 Activator Assay):
On the first day (day 1) cells are normally cultured in RPMI-1640 (Lonza #[…].) (with 25 mM Hepes, L-glutamine)/10% FBS. The cells are subsequently trypsinized and plated in RPMI-1640 (Lonza, #12-918F) (no phenol red, supplemented with L-glutamine @300 mg/L (Sigma, #G8540))/10% FBS at the following densities in 96 well plates:
100 uL final volume of media per well.
On the second day (Day 2), the cells should be 70-90% confluent. The cells are then treated with a compound described herein dissolved in media at final assay concentrations in a 96-well assay block (500 uL) (Costar, #3956). The final DMSO concentration is 0.1% (0.5 μL into 500 uL). Compound dilutions in DMSO are prepared so that the final DMSO concentration is constant at all compound concentrations. The media for the assay is RPMI-1640 (no phenol red, with L-glutamine @300 mg/L).
The media is then aspirated carefully from the cells using a multi-channel aspirator. 100 μL of media w/compounds is added onto cells with a multichannel pipette. Each compound concentration is then assayed in triplicate (a duplicate assay is also sufficient).
The cells are treated for 1-4 hrs (this time is determined empirically compared to DMSO reference treatment). During the cell treatment, PBS (containing calcium and magnesium) and lysis buffer is cooled on ice.
The cells are lysed and the pyruvate kinase activity is assayed. The remaining media is aspirated and the cells are washed 2× with 100 uL ice-cold PBS. The PBS is removed, and the cell plate frozen on dry ice for 5 minutes. The cells are lysed in 50 μL cold lysis buffer. Cells are subsequently kept on ice for 5 minutes, and then agitated on a plate shaker for 5 minutes (repeat 3×). Remove 10 μL for protein quantitation (or use OD280 on entire plate).
In a fresh plate, 170 uL of pyruvate kinase assay master mix was added to each well (see end for recipe). 10 uL of cell lysate was then transferred into each well. The assay was initiated upon addition of 20 uL of ADP solution. […]
Target sequence in this assay (P14618 2-531 limits assumed): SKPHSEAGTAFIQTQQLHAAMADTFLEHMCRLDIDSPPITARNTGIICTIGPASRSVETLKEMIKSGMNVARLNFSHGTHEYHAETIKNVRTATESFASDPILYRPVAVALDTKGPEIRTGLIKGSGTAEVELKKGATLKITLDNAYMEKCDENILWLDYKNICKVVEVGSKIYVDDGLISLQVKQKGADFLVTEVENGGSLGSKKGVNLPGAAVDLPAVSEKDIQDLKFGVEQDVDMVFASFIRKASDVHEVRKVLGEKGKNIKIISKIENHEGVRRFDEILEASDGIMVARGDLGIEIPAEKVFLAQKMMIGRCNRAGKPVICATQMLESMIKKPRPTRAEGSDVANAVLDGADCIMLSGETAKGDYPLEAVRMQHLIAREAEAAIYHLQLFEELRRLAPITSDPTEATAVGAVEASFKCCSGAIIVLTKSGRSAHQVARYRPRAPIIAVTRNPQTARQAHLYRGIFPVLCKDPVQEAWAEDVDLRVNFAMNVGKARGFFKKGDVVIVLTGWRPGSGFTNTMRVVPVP

The target of assay [2] is T1, PKM2. Put plainly: PKM2 Assay. The format is biochemical. As to conditions: activation of PKM2 enzyme, LDH-coupled, absorbance at 340 nm; read-out: PKM2_AC50. As to the method:
• PKM2 stock enzyme solution was diluted in Reaction Buffer • 2 μL of compound was added into each well first, and then 180 μL of the Reaction Mix was added. • Reaction mixture with compound (without ADP) were incubated for 30 minutes at 4° C. • Plates were re-equilibrated to room temperature prior to adding 20 μL ADP to initiate the reaction. • Reaction progress was measured as changes in absorbance at 340 nm wavelength at room temperature (25° C.) • Reaction Mix: PKM2 (50 ng/well), ADP (0.7 mM), PEP (0.15 mM), NADH (180 μM), LDH (2 units) in Reaction Buffer • Reaction Buffer: 100 mM KCl, 50 mM Tris pH 7.5, 5 mM MgCl2, 1 mM DTT, 0.03% BSA.
Target sequence in this assay (P14618 whole entry): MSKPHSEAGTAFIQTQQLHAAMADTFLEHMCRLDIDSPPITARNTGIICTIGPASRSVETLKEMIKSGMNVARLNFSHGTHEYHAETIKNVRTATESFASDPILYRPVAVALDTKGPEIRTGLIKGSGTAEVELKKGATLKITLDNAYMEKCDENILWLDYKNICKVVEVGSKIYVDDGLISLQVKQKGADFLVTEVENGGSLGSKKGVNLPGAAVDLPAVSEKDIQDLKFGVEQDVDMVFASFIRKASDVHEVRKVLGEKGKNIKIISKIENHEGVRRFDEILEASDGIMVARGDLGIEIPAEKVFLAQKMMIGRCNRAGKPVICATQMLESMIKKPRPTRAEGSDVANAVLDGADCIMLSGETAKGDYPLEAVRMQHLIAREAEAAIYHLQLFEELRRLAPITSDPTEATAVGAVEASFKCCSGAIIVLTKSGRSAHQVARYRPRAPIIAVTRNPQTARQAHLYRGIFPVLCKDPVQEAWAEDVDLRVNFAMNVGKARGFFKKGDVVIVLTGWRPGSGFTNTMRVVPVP

In the case of `O=S(=O)(Nc1cccc(Cl)c1)c1cccn1-c1ncc(C(F)(F)F)cc1Cl`, the AC50 on PKM2 [1] is no more than 1 µM; at PKM2 [2], less than 0.1 µM.
The matching figures for `O=S(=O)(Nc1ccc2c(c1)OCO2)c1cccn1-c1ncccc1Cl`: no more than 1 µM and less than 0.1 µM.
Taken in the same sequence, the figures for `Cc1cc(NS(=O)(=O)c2cncn2-c2ncc(C(F)(F)F)cc2Cl)ccc1Cl` were no more than 1 µM and 0.1 to 0.5 µM.
Taken in the same sequence, the figures for `Cc1cc(C)cc(NS(=O)(=O)c2cccn2-c2nccc(Cl)n2)c1` were greater than 1 µM and less than 0.1 µM.
Regarding `O=S(=O)(Nc1ccc2ccccc2c1)c1cncn1-c1ncc(C(F)(F)F)cc1Cl` [drawing 151], the AC50 at PKM2 [1] is no more than 1 µM; on PKM2 [2], 0.1 to 0.5 µM.
The matching figures for `Cc1cc(NS(=O)(=O)c2cccn2-c2ncccc2Cl)ccc1F` [drawing 161]: no more than 1 µM and 0.1 to 0.5 µM.
With `O=S(=O)(Nc1cc(F)cc(F)c1)c1cccn1-c1ncc(C(F)(F)F)cc1Cl`, the figures for the AC50 on PKM2 [1] and at PKM2 [2] were no more than 1 µM and less than 0.1 µM, respectively.
As for `Cc1ccc(NS(=O)(=O)c2cccn2-c2ncc(C(F)(F)F)cc2Cl)cc1C`, the AC50 on PKM2 [1] was no more than 1 µM; on PKM2 [2], less than 0.1 µM.
In the case of `Cc1cc(C)cc(NS(=O)(=O)c2cncn2-c2ncc(C(F)(F)F)cc2Cl)c1`, the AC50 at PKM2 [1] was no more than 1 µM.
`O=S(=O)(Nc1ccccc1)c1cccn1-c1ncc(C(F)(F)F)cc1Cl`: the figures for the AC50 on PKM2 [1] and at PKM2 [2] were no more than 1 µM and less than 0.1 µM, respectively.
Consider `O=S(=O)(Nc1ccc(Cl)cc1)c1cccn1-c1ncc(C(F)(F)F)cc1Cl`, for which the AC50 at PKM2 [1] is no more than 1 µM.
Take `O=S(=O)(Nc1ccc(F)c(Cl)c1)c1cccn1-c1ccnc(Cl)n1`: the AC50 was greater than 1 µM on PKM2 [1] and less than 0.1 µM on PKM2 [2].
The matching figures for `O=S(=O)(Nc1cccc(Cl)c1)c1cncn1-c1ncc(C(F)(F)F)cc1Cl`: no more than 1 µM and 0.1 to 0.5 µM.
`Cc1cccc(NS(=O)(=O)c2cncn2-c2ncc(C(F)(F)F)cc2Cl)c1`: the AC50 on PKM2 [1] was no more than 1 µM.
As for `Cc1ccc(NS(=O)(=O)c2cncn2-c2ncc(C(F)(F)F)cc2Cl)cc1C`, the results for the AC50 on PKM2 [1] and at PKM2 [2] were no more than 1 µM and less than 0.1 µM, respectively.
Take `O=S(=O)(Nc1ccc(F)c(Cl)c1)c1cncn1-c1ncccn1` [drawing 160]: the AC50 at PKM2 [1] is no more than 1 µM.
As for `O=S(=O)(Nc1ccc2ccccc2c1)c1cncn1-c1ncc(C(F)(F)F)cc1Cl` [drawing 128], the AC50 was no more than 1 µM at PKM2 [1] and less than 0.1 µM on PKM2 [2].
The matching figures for `O=S(=O)(Nc1ccc(F)c(Cl)c1)c1cncn1-c1ncc(C(F)(F)F)cc1Cl`: no more than 1 µM and 0.1 to 0.5 µM.
Consider `Cc1cc(C)cc(NS(=O)(=O)c2cnn(-c3ncc(C(F)(F)F)cc3Cl)c2)c1`, for which the AC50 at PKM2 [1] was no more than 1 µM; on PKM2 [2], less than 0.1 µM.
Taken in the same sequence, the figures for `O=S(=O)(Nc1ccc(Cl)cc1)c1cncn1-c1cnccn1` were no more than 1 µM and 1 to 10 µM.
As for `Cc1cc(C)cc(NS(=O)(=O)c2cccn2-c2ncc(C(F)(F)F)cc2Cl)c1`, on PKM2 [1], the AC50 was no more than 1 µM.
Regarding `Cc1cc(NS(=O)(=O)c2cccn2-c2ncc(C(F)(F)F)cc2Cl)ccc1F`, the AC50 on PKM2 [1] is no more than 1 µM.
As to `Cc1cc(C)cc(NS(=O)(=O)c2cccn2-c2ccc(C(F)(F)F)cn2)c1`, the AC50 is no more than 1 µM at PKM2 [1] and 0.1 to 0.5 µM on PKM2 [2].
Taken in the same sequence, the figures for `Cc1cc(NS(=O)(=O)c2cccn2-c2ncc(C(F)(F)F)cc2Cl)ccc1Cl` were no more than 1 µM and less than 0.1 µM.
For the compound `O=S(=O)(Nc1ccc2c(c1)OCO2)c1cccn1-c1ncc(C(F)(F)F)cc1Cl`, on PKM2 [1], the AC50 is no more than 1 µM.
Take `CCc1cccc(NS(=O)(=O)c2cccn2-c2ccnc(Cl)n2)c1`: the AC50 is greater than 1 µM at PKM2 [1] and 0.1 to 0.5 µM on PKM2 [2].
Regarding `Cc1cc(C)cc(NS(=O)(=O)c2cccn2-c2ncccn2)c1`, the AC50 on PKM2 [1] is no more than 1 µM.
On to `Cc1cc(NS(=O)(=O)c2cncn2-c2ncccn2)ccc1F` [drawing 158], for which the AC50 at PKM2 [1] is no more than 1 µM; at PKM2 [2], 0.1 to 0.5 µM.
Consider `O=S(=O)(Nc1ccc(F)c(Cl)c1)c1ccnn1-c1cccs1`, for which the AC50 on PKM2 [2] was greater than 10 µM.
Same read-out and setting: the figure for `O=S(=O)(Nc1ccc2c(c1)OCO2)c1cccn1-c1nccc(Cl)n1` is 0.1 to 0.5 µM.
Regarding `O=S(=O)(Nc1ccc(Cl)cc1)c1cccn1-c1ncccc1Cl` [drawing 87], the AC50 on PKM2 [1] was no more than 1 µM.
`O=S(=O)(Nc1ccc(Cl)cc1)c1cncn1-c1nccc(Cl)n1`: the AC50 on PKM2 [2] was 1 to 10 µM.
In the case of `Cc1cc(NS(=O)(=O)c2cncn2-c2ncc(C(F)(F)F)cc2Cl)ccc1F`, the AC50 was no more than 1 µM on PKM2 [1] and less than 0.1 µM at PKM2 [2].
Turning to `O=S(=O)(Nc1cc(Cl)cc(Cl)c1)c1cncn1-c1ncc(C(F)(F)F)cc1Cl`, on PKM2 [2], the AC50 lay in the range of 1 to 10 µM.
On the same count and under the same terms, the result for `Cc1cc(C)cc(NS(=O)(=O)c2cncn2-c2cnccn2)c1` reads less than 0.1 µM; that for `O=S(=O)(Oc1ccc(Cl)cc1)c1cccn1-c1ncc(C(F)(F)F)cc1Cl`, 0.5 to 1 µM; that for `COc1cc(NS(=O)(=O)c2cncn2-c2ncc(C(F)(F)F)cc2Cl)cc(C(F)(F)F)c1` [drawing 144], 0.5 to 1 µM.
Turning to `Cc1ccc(NS(=O)(=O)c2cccn2-c2ncc(C(F)(F)F)cc2Cl)cc1`, the AC50 on PKM2 [1] is no more than 1 µM; on PKM2 [2], less than 0.1 µM.
For `Cc1cc(C)cc(S(=O)(=O)Nc2ccnn2-c2ncc(C(F)(F)F)cc2Cl)c1`, the AC50 on PKM2 [2] is greater than 10 µM.
With `CCc1cccc(NS(=O)(=O)c2cccn2-c2ncc(C(F)(F)F)cc2Cl)c1`, the AC50 at PKM2 [2] is 0.5 to 1 µM.
For `Cc1cc(C)cc(NS(=O)(=O)c2cccn2-c2ccnc(Cl)n2)c1`, the figures for the AC50 at PKM2 [1] and at PKM2 [2] were greater than 1 µM and less than 0.1 µM, respectively.
